From patent US20120121509A1, “VITAL FLUOROCHROME CONJUGATES AND METHODS OF USE” (THE GENERAL HOSPITAL CORPORATION, priority 2009, published 2012)

Assays:
[1] = tested on: Jurkat cells; assay: In vitro T1 weighted MRI / FRI of packed cell phantoms of camptothecin treated Jurkat cells; type: cell-based; details: for uptake by CPT treated cells by MRI: T1 weighted MRI, FRI and relaxometry, CPT treated versus non-CPT treated Jurkat cells
Description: The interaction of GadoTO with necrotic cells is shown schematically in FIG. 5A. GadoTO is excluded by vital cells. Prolonged ischemia or a 48 hour exposure to CPT induces necrosis, which causes GadoTO to enter cells and intercalate with double stranded nuclear DNA. […] Effects on cellular T1 were confirmed by relaxometry studies using cell suspensions.

[2] = tested on: infarcted myocardium; assay: MR imaging of post myocardial infarction phases (age of infarction); type: in vivo; details: mouse
Description: An additional feature of the invention is an imaging method to determine the age of a myocardial infarction (MI), i.e., the time since the occlusion began. Patients can present with symptoms of variable intensity and duration that may or may indicate an infarction. Current techniques can define regions of non-functional myocardium, but cannot define the time of infarction. With developing (“young”) infarctions, treatments to limit or reverse the affected area are indicated, while with “old” infarctions such treatments are futile. In this method a vital fluorochrome conjugate is injected intravenously and MRI or PET or SPECT are used to measure the vital fluorochrome conjugates uptake in an infracted area.
FIGS. 6A and 6B show an example of a beating mouse heart injected with GadoTO imaged during phase 2 (18 hours) (FIG. 6A) and phase 4 (8 days) (FIG. 6B) of the post MI reaction phases. […] GadoTO can thus be used to specifically image acutely necrotic myocardium/tissue.

[3] = tested on: necrotic cardiomyocytes of infarcted myocardium; assay: In vivo MR imaging of ischemia induced necrosis, left coronary artery ligation; details: mouse
Description: For in vivo MR studies, we employed a model of prolonged ischemia, obtained when the left coronary artery of a beating mouse heart was ligated for 18 hours. The ligation and procedure is similar to our previously described method (Sosnovik, D. E. et al., Magn. Reson. Med., 54:718-24, 2005) except the duration is for 18 hours. […] GadoTO was injected (18 hours post ligation) and imaged (21 h). […] Gd-DTPA washed in and out of damaged myocardium within 1 hour.

[4] = tested on: Jurkat T cells; assay: Single channel FACS, GadoTO versus propidium iodide; type: cell-based
Description: Experimental Details for the Dual Wavelength FACS and Single Channel FACS: Cell culture: All experiments described used Jurkat T cells (Clone E6-1, ATCC #TIB-152). Cells were grown in RPMI 1640 medium (ThermoFisher Scientific, Hampton, N.H.) with 10% fetal bovine serum (Valley Biomedical, Winchester, Va.), 1% L-Glutamine (Mediatech, Manassas, Va.), 1% Penycillin-Streptomycin (Mediatech, Manassas, Va.). Media was changed every two or three days. Cells were maintained at 37° C., 5% CO2. Flow cytometry experiments: Cells were treated with camptothecin (CPT, 24 hrs, 10 μM). After removal of the medium, cells were resuspended into 100 μL of binding buffer (10 mM HEPES, 140 mM NaCl, 2.5 mM CaCl2, 1% FBS). Cells were stained at 37° C. for 15 min with 1 μL Annexin-APC (Invitrogen) and 1 μL propidium iodide (BD Pharmingen) or 1 μL of GadoTO (0.1 mM stock solution in binding buffer). Cells were diluted with 200 μL of binding buffer and analyzed by flow cytometry (FACSCalibur, Becton Dickinson). Fluorescence from the APC fluorochrome was measured in FL4, PI in FL3, and GadoTO in FL1. […]

[5] = molecular target: DNA; assay: Fluorescence assay: binding of GadoTO to DNA monitored by fluorescence; details: GadoTO 2.35 uM, increasing DNA concentrations, emission 510-700 nm; 95% confidence interval 0.149-0.214; read-out: half-maximal concentration (EC50) from fluorescence values
Description: Experimental Details of the Fluorescence Assay: GadoTO at 2.35 uM was employed with increasing concentrations of DNA. Absorption spectra were measured on a Varian Cary 50 Bio UV-Visible spectrophotometer. The absorbance at 511 nm was measured. Fluorescence emission spectra were recorded on a Varian Cary Eclipse fluorescence spectrophometer. Fluorescence intensities were measured between 510 and 700 nm and corrected, when necessary, for matched absorbances at 511 nm. Fluorescence intensities were plotted versus DNA concentrations.
(§1) Results from the Relaxation and Fluorescence Assays: The design of vital fluorochrome conjugates must preserve the essential features of the vital fluorochrome upon which it is based. The verification that a putative vital fluorochrome conjugates (VF-Linker-Reporter) has the properties of the VF upon which its was based is shown in FIGS. 2A, 2B, 3 and 4 which show the results with the vital fluorochrome conjugates known as GadoTO. Since the reporter group of GadoTO is a paramagnetic gadolinium chelate, binding can be ascertained by changes in the water relaxation rates. […] Binding of small GadoTO to the larger DNA slows the molecular motion, increasing the R1 relaxivity and decreasing the solution T1.

[6] = tested on: Jurkat T cells; assay: Dual wavelength FACS with Annexin V-APC, camptothecin-treated Jurkat T cells; type: cell-based
Description: Experimental Details for the Dual Wavelength FACS and Single Channel FACS: Cell culture: All experiments described used Jurkat T cells (Clone E6-1, ATCC #TIB-152). Cells were grown in RPMI 1640 medium (ThermoFisher Scientific, Hampton, N.H.) with 10% fetal bovine serum (Valley Biomedical, Winchester, Va.), 1% L-Glutamine (Mediatech, Manassas, Va.), 1% Penycillin-Streptomycin (Mediatech, Manassas, Va.). Media was changed every two or three days. Cells were maintained at 37° C., 5% CO2. Flow cytometry experiments: Cells were treated with camptothecin (CPT, 24 hrs, 10 μM). After removal of the medium, cells were resuspended into 100 μL of binding buffer (10 mM HEPES, 140 mM NaCl, 2.5 mM CaCl2, 1% FBS). Cells were stained at 37° C. for 15 min with 1 μL Annexin-APC (Invitrogen) and 1 μL propidium iodide (BD Pharmingen) or 1 μL of GadoTO (0.1 mM stock solution in binding buffer). Cells were diluted with 200 μL of binding buffer and analyzed by flow cytometry (FACSCalibur, Becton Dickinson). Fluorescence from the APC fluorochrome was measured in FL4, PI in FL3, and GadoTO in FL1.
Results from Dual Wavelength FACS: The exclusion of GadoTO from healthy cells and uptake by necrotic cells by FACS is shown in FIG. 3. […] GadoTO binding necrotic cells were of two intensities (Hi and Lo), indicating two subpopulations of necrotic cells.

[7] = molecular target: plasmid DNA; assay: Relaxation assay: binding of GadoTO to plasmid DNA monitored by relaxometry (T1); details: GadoTO 1 mM, plasmid DNA 0.025 to 0.3 ug/uL, Bruker minispec; 95% confidence interval 0.078-0.101; read-out: half-maximal concentration (EC50) from T1 values
Description: Experimental Details of the Relaxation Assay: Gadolinium thiazole orange (GadoTO) at 1 mM was employed with increasing concentrations of plasmid DNA (DNA 0.025 to 0.3 ug/uL). Relaxation times were measured on a Bruker minispec at […].
as §1

[8] = cited from earlier work; for Abs (absorption): first figure of Abs/em; for em (emission): second figure of Abs/em

For Gadolinium thiazole orange [GadoTO], the “uptake by CPT treated cells by MRI” value [1] was “brighter than non-CPT treated cells”, the “nuclear cell fluorescence emission” value ([1]; after intercalation with double stranded nuclear DNA of necrotic cells) was 533 nm and the “uptake in infarcted myocardium” value ([2]; phase 2 (18 hours) post MI) was “Profound uptake”. The “uptake in infarcted myocardium” value ([2]; phase 4, injected 8 days after myocardial infarction) was “no uptake”, the “infarct on GRE image” value ([3]; injected 18 hours post ligation, imaged 21 h, gradient echo) was “barely visible infarct” and the “infarct on IR GRE image” value ([3]; injected 18 hours post ligation, imaged 21 h, inversion recovery GRE) was “well-defined, bright infarct”. The “binding to cells, single channel FACS” value ([4]; Jurkat cells with CPT (+CPT), PI compared with GadoTO) was “two peaks (Lo and Hi) of highly fluorescent cells were seen”, the “binding to cells, single channel FACS” value ([4]; Jurkat cells without CPT (-CPT)) was “cells failed to bind GadoTO” and the EC50 [5] was 179 µM. The “binding to cells, dual wavelength FACS” value ([6]; Jurkat T cells after camptothecin (+CPT, 24 hrs, 10 μM), necrotic cells) was “cells bound both probes”, the “binding to cells, dual wavelength FACS” value ([6]; Jurkat T cells before camptothecin (-CPT), viable cells) was “failed to bind” and the EC50 [7] was 89 µM.
For `CCCN(CCCN(C)C)C1=C/C(=C\c2sc3ccccc3[n+]2C)c2ccccc2N1c1ccccc1` [Sybr Green], the “Abs (absorption)” value [8] is given as 490 nm and the “em (emission)” value [8] is given as 520 nm.
In the case of `C[n+]1c(/C=C/C=C2\C=CN(CCC[N+](C)(C)C)c3ccccc32)sc2ccccc21` [TO-PRO 3], the “Abs (absorption)” value [8] is given as 612 nm and the “em (emission)” value [8] is given as 631 nm.
With `O=C([O-])CN(CCN(CC(=O)[O-])CC(=O)O)CCN(CC(=O)[O-])CC(=O)O.[Gd+3]` [Gd-DTPA] the “uptake by CPT treated cells by MRI” value [1] was “did not induce the uptake” and the “time to wash in and out of damaged myocardium” value ([3]; damaged myocardium) was no more than 1 h.
In the case of `CN1/C(=C/c2cc[n+](CCC[N+](C)(C)C)c3ccccc23)Oc2ccccc21` [YO-PRO], the “Abs (absorption)” value [8] is given as 491 nm and the “em (emission)” value [8] is given as 509 nm.
In the case of `CN1/C(=C/c2cc[n+](CCC[N+](C)(C)C)c3ccccc23)Sc2ccccc21` [TO-PRO 1], the “Abs (absorption)” value [8] is given as 515 nm and the “em (emission)” value [8] is given as 531 nm.
In the case of `CN(C)CCCN1C=C\C(=C/C=C/C=C/c2sc3ccccc3[n+]2C)c2ccccc21.I.[I-]` [TO-PRO 5], the “Abs (absorption)” value [8] is given as 745 nm and the “em (emission)” value [8] is given as 770 nm.
For `CN1/C(=C/C=C/C2C=CN(CCC[N+](C)(C)C)c3ccccc32)Oc2ccccc21` (centres unmarked) [YO-PRO 3], the “Abs (absorption)” value [8] is listed as 612 nm and the “em (emission)” value [8] is listed as 631 nm.
